System: renal sympathetic tone
Experiment: Renal pressure-flow measurements in anesthetized swine before and after renal sympatholysis with intrathecal ropivacaine
Type: in vivo, pigs
Description: METHODS: Referring to FIG. 4, nine adult male New Zealand White rabbits were implanted with arterial pressure telemeters and bilateral renal flow probes. One kidney of each rabbit was surgically denervated. The rabbits were acclimated to a procedure room and, after a two-week recovery, measurements of arterial pressure and bilateral renal blood flow were obtained in the conscious state. Referring to FIG. 5, ten pigs were induced and then anesthesia was maintained via ketamine-midazolam IV infusion. T9/T10 intrathecal and arterial access were established. A Volcano ComboWire® was placed in the renal artery to measure intravascular pressure and flow velocity. Intrathecal ropivacaine was given to reduce renal sympathetic tone, and renal pressure-flow measurements were repeated.
Referring to FIG. 6, Arterial pressure and renal blood flow measurements were used to estimate resistive flow as a function of time, which was in turn used to derive the renal pressure-flow time-varying transfer function (TVTF). TVTF analysis focused on known sympathetic vaso-motor frequencies (0.2-0.75 Hz in rabbits, 0.03-0.1 Hz in pigs). Control of renal vascular resistance in different states of innervation was characterized by occurrence plots of admittance gain and phase shift of the TVTF. Admittance gain reflects the normalized magnitude of oscillations in renal blood flow; phase shift reflects the timing of renal blood flow oscillations relative to arterial pressure.
Table 2 (below) illustrates the mean hemodynamics of the pigs before (“Baseline”) and after renal sympatholysis with intrathecal ropivacaine (“Ropi”).

## CCCN1CCCC[C@H]1C(=O)Nc1c(C)cccc1C [Ropi, ropivacaine]
Mean hemodynamics of anesthetized pigs after renal sympatholysis with intrathecal ropivacaine (T9/T10), baseline 24 +/− 3
  Renal Blood Flow Velocity: 28 ± 5 cm/s
Mean hemodynamics of anesthetized pigs after renal sympatholysis with intrathecal ropivacaine (T9/T10), baseline 83 +/− 4
  Arterial Pressure: 72 +/− 7 mmHg
Mean hemodynamics of anesthetized pigs after renal sympatholysis with intrathecal ropivacaine (T9/T10), baseline 85 +/− 8
  Heart Rate: 71 +/− 5 bpm
pigs, state PRIOR to intrathecal ropivacaine compared with after (0.03-0.1 Hz)
  Phase asynchrony of the renal pressure-flow time-varying transfer function at known sympathetic vasomotor frequencies: more phase asynchrony

From US11896423B2, “Time-varying quantification of capacitive and resistive arterial blood flow” (Board of Regents of the University of Nebraska, priority 2018, dated 2024)
